{"source": "paper PMC11291634", "about": "(Scientific Reports, 2024)", "biological_target": "carboxylesterase Ha006a", "assay": "ITC with purified protein, one-site model, […] °C", "format": "binding, Helicoverpa armigera", "data": [{"compound": "CCNc1nc(Cl)nc(NC(C)C)n1", "note": "[ATZ, atrazine]", "values": [{"measurement": "Kd", "value": 57, "unit": "µM"}]}]}
